Measured values from patent publication US8492557B2, “Ester pro-drugs of [3-(1-(1H-imidazol-4-yl)ethyl)-2-methylphenyl] methanol” (Allergan, Inc., priority 2010, dated 2013).
Read-outs that look alike come from different tables or passages of the source.

Key:
bovine α1A receptor = target: T1, bovine α1A receptor (Bos taurus, UniProt P18130); experiment: FLIPR Ca+2 influx assay, a1A; format: cell-based; details: for a1A (eff): efficacy in brackets, norepinephrine is the standard full agonist, HEK 293 cells
T1 sequence (P18130 1-466): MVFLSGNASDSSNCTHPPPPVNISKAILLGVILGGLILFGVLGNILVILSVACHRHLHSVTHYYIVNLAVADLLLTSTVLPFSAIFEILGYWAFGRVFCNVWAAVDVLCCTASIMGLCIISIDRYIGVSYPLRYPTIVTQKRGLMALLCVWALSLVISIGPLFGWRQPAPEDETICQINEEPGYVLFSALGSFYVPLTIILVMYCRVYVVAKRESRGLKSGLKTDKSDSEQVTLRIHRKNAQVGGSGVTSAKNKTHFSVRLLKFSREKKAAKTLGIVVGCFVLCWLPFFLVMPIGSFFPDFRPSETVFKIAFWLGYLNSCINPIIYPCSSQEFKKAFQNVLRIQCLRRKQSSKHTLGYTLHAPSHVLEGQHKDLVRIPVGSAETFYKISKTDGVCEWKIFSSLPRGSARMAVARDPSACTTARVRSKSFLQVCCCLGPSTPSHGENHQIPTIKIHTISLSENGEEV
Description: (§1) HEK 293 cells stably expressing the bovine α1A receptor, human alpha 2A receptor and the chimeric G protein Gqi5, are plated in poly-D-lysine coated 384-well plates at 20,000-40,000 cells per well and grown overnight in DMEM supplemented with 10% fetal bovine serum. For FLIPR (fluorometric image plate reader) evaluation, cells are washed twice with HBSS/HEPES Buffer (1× Hanks Buffered Salt Solution, 20 mM HEPES, pH 7.4) prior to the addition of Fluo-4-AM (4 uM Fluo-4-AM, 0.04% pluronic acid in HBSS/HEPES Buffer), a calcium-sensitive dye. Cells are loaded with dye for 40 minutes at 37° C., then washed 4 times with HBSS/HEPES Buffer. For both the agonist and antagonist assay, the test compounds are tested between 0.64 nM-10,000 nM.
(§2) For an agonist assay, the reaction is initiated by the addition of the appropriate dilutions of compounds and the transient calcium signal captured. The peak height of the calcium curve is determined and utilized for calculation of EC50 and efficacy using ActivityBase. Norepinephrine is the standard full agonist used for evaluating alpha-1 and alpha-2 receptor activity.
However, the antagonist blocks the transient calcium signal of the standard agonist norepinephrine in a dose-dependent manner. The residual norepinephrine peak height is compared to the non-antagonized norepinephrine peak height for the determination of % antagonism.

human alpha 2A receptor = target: T2, human alpha 2A receptor (Homo sapiens, UniProt P08913); experiment: FLIPR Ca+2 influx assay, a2A; format: cell-based; details: for a2A (eff): efficacy in brackets, norepinephrine is the standard full agonist, HEK 293 cells
T2 construct: expressed in transfected cells; host or cells: HEK 293
T2 sequence (P08913 1-465): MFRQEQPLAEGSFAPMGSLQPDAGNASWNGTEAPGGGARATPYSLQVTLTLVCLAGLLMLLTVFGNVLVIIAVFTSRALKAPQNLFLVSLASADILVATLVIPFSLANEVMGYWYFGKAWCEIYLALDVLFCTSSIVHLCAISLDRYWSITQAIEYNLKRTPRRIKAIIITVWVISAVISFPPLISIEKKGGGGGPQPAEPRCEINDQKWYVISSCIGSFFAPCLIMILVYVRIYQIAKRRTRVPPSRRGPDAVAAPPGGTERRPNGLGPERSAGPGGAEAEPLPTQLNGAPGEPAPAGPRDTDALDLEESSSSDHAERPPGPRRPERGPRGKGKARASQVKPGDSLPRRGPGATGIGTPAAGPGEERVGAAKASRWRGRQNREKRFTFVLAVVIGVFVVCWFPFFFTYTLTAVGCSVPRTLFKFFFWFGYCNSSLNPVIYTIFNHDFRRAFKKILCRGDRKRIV
Description: as §1, §2
The residual norepinephrine peak height is compared to the non-antagonized norepinephrine peak height for the determination of % antagonism.

| SMILES | EC50 (bovine α1A receptor; HEK 293 cells with chimeric G protein Gqi5, agonist assay, tested 0.64 nM-10,000 nM, n/a: Not active, read-out: a1A EC50) | a1A (eff) (bovine α1A receptor) | a2A (eff) (human alpha 2A receptor) | EC50 (bovine α1A receptor) | EC50 (human alpha 2A receptor) |
| --- | --- | --- | --- | --- | --- |
| Brc1c(NC2=NCCN2)ccc2nccnc12 [Brimonidine] | 600 to 2400 nM | 0.3 | 0.95 | – | – |
| Cc1c(CO)cccc1[C@H](C)c1c[nH]cn1 [(S)-[3-(1-(1H-imidazol-4-yl)ethyl)-2-methylphenyl]methanol] | – | 0.7 | 0.9 | 340 to 2400 nM | 25 nM |
